In assay [1] the target is Mitogen-activated protein kinase kinase kinase kinase 5 (Homo sapiens) (UniProt Q9Y4K4). Put plainly: Binding affinity to wild type partial length human MAP4K5 (M1 to P297) expressed in Bacterial expression system assessed as residual activity at 100 nM measured by Kinomescan assay relative to control.
In assay [2] the target is Mitogen-activated protein kinase kinase kinase 20 (Homo sapiens) (UniProt Q9NYL2). Put plainly: Binding affinity to wild type partial length human ZAK (M1 to L331) expressed in bacterial expression system assessed as residual activity at 100 nM measured by Kinomescan assay.
The target of assay [3] is T1, Dual specificity mitogen-activated protein kinase kinase 7 (Homo sapiens) (UniProt O14733).
T1 sequence (whole entry): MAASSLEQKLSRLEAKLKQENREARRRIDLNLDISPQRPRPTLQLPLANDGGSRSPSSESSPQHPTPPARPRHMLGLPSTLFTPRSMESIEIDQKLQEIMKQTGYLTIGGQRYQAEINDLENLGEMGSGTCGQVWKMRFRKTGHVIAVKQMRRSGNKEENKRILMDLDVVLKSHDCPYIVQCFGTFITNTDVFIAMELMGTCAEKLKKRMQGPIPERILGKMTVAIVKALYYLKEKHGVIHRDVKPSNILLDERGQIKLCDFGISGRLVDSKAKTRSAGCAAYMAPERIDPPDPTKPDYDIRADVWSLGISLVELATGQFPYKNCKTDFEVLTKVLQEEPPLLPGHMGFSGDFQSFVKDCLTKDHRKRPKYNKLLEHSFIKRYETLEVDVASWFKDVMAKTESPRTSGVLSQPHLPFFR
Put plainly: Binding affinity to wild type full length human MKK7 (M1 to R419 residues) expressed in mammalian expression system assessed as residual activity at 100 nM measured by Kinomescan assay.

Chain of Mitogen-activated protein kinase kinase kinase kinase 5 (Homo sapiens) (Q9Y4K4 whole entry, looked up): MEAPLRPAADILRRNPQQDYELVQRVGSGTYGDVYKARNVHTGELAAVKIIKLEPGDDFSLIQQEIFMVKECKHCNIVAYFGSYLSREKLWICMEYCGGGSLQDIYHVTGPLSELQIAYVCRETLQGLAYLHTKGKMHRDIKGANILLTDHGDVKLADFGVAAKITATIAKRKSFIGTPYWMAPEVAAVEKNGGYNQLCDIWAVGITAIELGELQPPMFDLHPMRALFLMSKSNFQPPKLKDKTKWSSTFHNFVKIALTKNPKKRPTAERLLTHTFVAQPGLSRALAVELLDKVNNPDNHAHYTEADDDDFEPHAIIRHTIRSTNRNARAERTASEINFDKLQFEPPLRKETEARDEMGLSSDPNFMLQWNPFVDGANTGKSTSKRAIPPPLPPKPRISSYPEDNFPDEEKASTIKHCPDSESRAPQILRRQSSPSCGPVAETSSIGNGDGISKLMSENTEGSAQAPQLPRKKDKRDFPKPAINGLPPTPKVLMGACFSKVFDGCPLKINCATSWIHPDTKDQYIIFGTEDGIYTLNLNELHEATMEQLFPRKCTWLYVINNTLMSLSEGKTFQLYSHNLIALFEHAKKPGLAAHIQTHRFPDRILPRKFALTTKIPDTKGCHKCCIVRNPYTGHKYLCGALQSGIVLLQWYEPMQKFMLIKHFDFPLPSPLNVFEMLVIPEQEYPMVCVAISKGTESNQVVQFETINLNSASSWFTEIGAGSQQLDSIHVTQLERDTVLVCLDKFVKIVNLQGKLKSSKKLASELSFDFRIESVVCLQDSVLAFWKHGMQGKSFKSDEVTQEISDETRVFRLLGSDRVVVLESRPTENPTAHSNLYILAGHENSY
Chain of Mitogen-activated protein kinase kinase kinase 20 (Homo sapiens) (Q9NYL2 2-800 limits assumed): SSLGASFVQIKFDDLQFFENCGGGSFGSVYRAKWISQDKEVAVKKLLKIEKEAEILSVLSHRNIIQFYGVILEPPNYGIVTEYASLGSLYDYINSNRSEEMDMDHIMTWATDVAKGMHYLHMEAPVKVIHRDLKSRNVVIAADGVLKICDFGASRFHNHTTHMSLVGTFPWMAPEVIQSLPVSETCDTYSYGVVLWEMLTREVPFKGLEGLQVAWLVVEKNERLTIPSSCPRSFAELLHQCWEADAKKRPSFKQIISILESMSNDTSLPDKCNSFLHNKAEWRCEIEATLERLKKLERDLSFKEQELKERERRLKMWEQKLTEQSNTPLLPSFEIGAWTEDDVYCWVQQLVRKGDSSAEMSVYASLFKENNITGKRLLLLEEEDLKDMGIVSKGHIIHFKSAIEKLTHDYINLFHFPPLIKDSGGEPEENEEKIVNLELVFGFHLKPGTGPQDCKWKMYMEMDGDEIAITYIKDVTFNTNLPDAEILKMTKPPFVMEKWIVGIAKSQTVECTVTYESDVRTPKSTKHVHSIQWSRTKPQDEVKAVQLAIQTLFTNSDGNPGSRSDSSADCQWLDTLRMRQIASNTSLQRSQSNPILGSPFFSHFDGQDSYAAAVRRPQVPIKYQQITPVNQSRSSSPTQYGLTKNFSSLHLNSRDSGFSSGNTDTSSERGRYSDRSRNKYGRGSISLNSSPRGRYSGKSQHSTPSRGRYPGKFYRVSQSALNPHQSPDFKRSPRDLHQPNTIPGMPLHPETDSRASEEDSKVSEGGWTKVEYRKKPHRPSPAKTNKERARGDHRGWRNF

Regarding `CCCCCCS(=O)(=O)Nc1ccc(F)c(C(=O)c2c[nH]c3ncc(-c4ccc(Cl)cc4)cc23)c1F`, the Activity in assay [1] amounted to 99%; in assay [2] it was 73%; in assay [3], 81%.
With `CCCS(=O)(=O)Nc1ccc(F)c(C(=O)c2c[nH]c3ncc(-c4cccc(Cl)c4)cc23)c1F`, the figures for the Activity in assay [2] and in assay [3] were 2.2% and 85%, respectively.
On to `CCCS(=O)(=O)Nc1ccc(F)c(C(=O)c2c[nH]c3ncc(-c4ccccc4Cl)cc23)c1F`, for which the Activity in assay [1] worked out at 79%; in assay [2], 7.6%; in assay [3] it was 100%.
For `CCCCCS(=O)(=O)Nc1ccc(F)c(C(=O)c2c[nH]c3ncc(-c4ccc(Cl)cc4)cc23)c1F` the same measures were 98%, 55% and 89%.
Taken in the same sequence, the figures for `CCCS(=O)(=O)Nc1cccc(C(=O)c2c[nH]c3ncc(-c4ccc(Cl)cc4)cc23)c1Cl` were 79%, 68% and 100%.
`CCCS(=O)(=O)Nc1ccc(F)c(C(=O)c2c[nH]c3ncc(-c4ccco4)cc23)c1F`: the results for the Activity in assay [1], in assay [2] and in assay [3] were 78%, 2.1% and 95%, respectively.
`O=C(c1c(F)ccc(NS(=O)(=O)Cc2cccc(F)c2)c1F)c1c[nH]c2ncc(-c3ccc(Cl)cc3)cc12`: the Activity is 36% in assay [2] and 99% in assay [3].
As to `COc1ccc(-c2cnc3[nH]cc(C(=O)c4cccc(NS(=O)(=O)Cc5ccccc5)c4F)c3c2)c(Cl)c1`, the Activity is 79% in assay [1], 87% in assay [2] and 100% in assay [3].
Taken in the same sequence, the figures for `CCCS(=O)(=O)Nc1ccc(F)c(C(=O)c2c[nH]c3ncc(-c4cccc(C)c4)cc23)c1F` were 28%, 0.7% and 97%.
In the case of `Cc1cccc(CS(=O)(=O)Nc2ccc(F)c(C(=O)c3c[nH]c4ncc(-c5ccc(Cl)cc5)cc34)c2F)c1`, the Activity in assay [2] is 64%; in assay [3] it was 100%.
Take `Cc1nc(NC(C)CO)c2c(n1)[nH]c1ccc(O)cc12` (configuration not stated): the results for the Activity in assay [1], in assay [2] and in assay [3] were 95%, 81% and 100%, respectively.
In the case of `O=C(c1cccc(NS(=O)(=O)Cc2ccccc2)c1F)c1c[nH]c2ncc(-c3ccncc3)cc12`, the values for the Activity in assay [1], in assay [2] and in assay [3] were 26%, 0.95% and 95%, respectively.
For `O=C(c1cccc(NS(=O)(=O)Cc2ccccc2)c1F)c1c[nH]c2ncc(-c3ccc(Cl)cc3)cc12` the same measures were 72%, 66% and 97%.
As to `CS(=O)(=O)Nc1ccc(F)c(C(=O)c2c[nH]c3ncc(-c4ccc(Cl)cc4)cc23)c1F`, the Activity in assay [1] was determined as 63%; in assay [2] it was 2.6%; in assay [3], 87%.
For the molecule `CCCS(=O)(=O)Nc1cccc(C(=O)c2c[nH]c3ncc(-c4ccc(Cl)cc4)cc23)c1C`, the Activity in assay [1] was determined as 40%; in assay [3], 91%.
With `CCCS(=O)(=O)Nc1ccc(F)c(C(=O)c2c[nH]c3ncc(-c4ccccc4F)cc23)c1F`, the Activity in assay [2] stood at 2.9%; in assay [3], 86%.
Take `CCCS(=O)(=O)Nc1ccc(F)c(C(=O)c2c[nH]c3ncc(-c4ccc(C)cc4)cc23)c1F`: the values for the Activity in assay [1], in assay [2] and in assay [3] were 28%, 0.85% and 89%, respectively.
With `CCCS(=O)(=O)Nc1ccc(F)c(C(=O)c2c[nH]c3ncc(-c4cccc(OC)c4)cc23)c1F`, the Activity was determined as 18% in assay [1], 23% in assay [2] and 100% in assay [3].
Taken in the same sequence, the figures for `CCCS(=O)(=O)Nc1ccc(F)c(C(=O)c2c[nH]c3ncc(-c4cncnc4)cc23)c1F` were 80%, 3.5% and 81%.
Taken in the same sequence, the figures for `COCCS(=O)(=O)Nc1ccc(F)c(C(=O)c2c[nH]c3ncc(-c4ccc(Cl)cc4)cc23)c1F` were 100%, 58% and 75%.
Take `CCS(=O)(=O)Nc1ccc(F)c(C(=O)c2c[nH]c3ncc(-c4ccc(Cl)cc4)cc23)c1F`: the Activity was found to be 82% in assay [1], 8.3% in assay [2] and 89% in assay [3].
On to `O=C(c1c(F)ccc(NS(=O)(=O)Cc2ccc(F)cc2)c1F)c1c[nH]c2ncc(-c3ccc(Cl)cc3)cc12`, for which the Activity in assay [2] came out at 61%; in assay [3] it was 100%.
Turning to `CCCS(=O)(=O)Nc1ccc(F)c(C(=O)c2c[nH]c3ncc(-c4ccc(F)cc4Cl)cc23)c1F`, the Activity in assay [1] was determined as 100%; in assay [2], 19%; in assay [3] it was 100%.
On to `CCCS(=O)(=O)Nc1cccc(C(=O)c2c[nH]c3ncc(-c4ccc(Cl)cc4)cc23)c1`, for which the results for the Activity in assay [1] and in assay [3] were 44% and 100%, respectively.
Regarding `CCCS(=O)(=O)Nc1ccc(F)c(C(=O)c2c[nH]c3ncc(-c4ccc(OC)cc4OC)cc23)c1F`, the figures for the Activity in assay [1], in assay [2] and in assay [3] were 84%, 1.6% and 87%, respectively.
For `CCCS(=O)(=O)Nc1ccc(F)c(C(=O)c2c[nH]c3ncc(-c4cnccn4)cc23)c1F` the same measures were 75%, 11% and 83%.
As to `CCCS(=O)(=O)Nc1ccc(F)c(C(=O)c2c[nH]c3ncc(-c4cccs4)cc23)c1F`, the Activity in assay [1] was 48%; in assay [2] it was 2.9%; in assay [3] it was 98%.
For the molecule `CCCS(=O)(=O)Nc1ccc(F)c(C(=O)c2c[nH]c3ncc(-c4ccc(OC)cc4C)cc23)c1F`, the Activity in assay [2] came to 13%; in assay [3] it was 97%.
As for `O=C(c1c(F)ccc(NS(=O)(=O)CCCF)c1F)c1c[nH]c2ncc(-c3ccc(Cl)cc3)cc12`, the results for the Activity in assay [1], in assay [2] and in assay [3] were 80%, 1.4% and 100%, respectively.
For the molecule `CCCS(=O)(=O)Nc1ccc(F)c(C(=O)c2c[nH]c3ncc(-c4ccc(OC)c(OC)c4)cc23)c1F`, the figures for the Activity in assay [1], in assay [2] and in assay [3] were 14%, 18% and 84%, respectively.
`CCCS(=O)(=O)Nc1ccc(F)c(C(=O)c2c[nH]c3ncc(-c4cnc(OC)nc4)cc23)c1F`: the Activity in assay [1] was 86%; in assay [2], 8.9%; in assay [3], 84%.
In the case of `CCCS(=O)(=O)Nc1ccc(F)c(C(=O)c2c[nH]c3ncc(-c4ccc(F)cc4F)cc23)c1F`, the results for the Activity in assay [2] and in assay [3] were 5.9% and 93%, respectively.
In the case of `CCCS(=O)(=O)Nc1ccc(F)c(C(=O)c2c[nH]c3ncc(-c4cc5c(cc4Cl)OCCO5)cc23)c1F`, the Activity in assay [1] turned out to be 98%; in assay [2], 20%; in assay [3], 97%.
Taken in the same sequence, the figures for `O=C(c1cccc(NS(=O)(=O)Cc2ccccc2)c1F)c1c[nH]c2ncc(-c3cc4c(cc3Cl)OCO4)cc12` were 66%, 80% and 100%.
Taken in the same sequence, the figures for `O=C(c1c(F)ccc(NS(=O)(=O)c2ccccc2)c1F)c1c[nH]c2ncc(-c3ccc(Cl)cc3)cc12` were 83%, 4.9% and 83%.
With `CCCS(=O)(=O)Nc1ccc(F)c(C(=O)c2c[nH]c3ncc(-c4ccc(OC)cc4)cc23)c1F`, the figures for the Activity in assay [1] and in assay [3] were 38% and 70%, respectively.
As to `O=C(c1c(F)ccc(NS(=O)(=O)CCC(F)(F)F)c1F)c1c[nH]c2ncc(-c3ccc(Cl)cc3)cc12`, the Activity in assay [1] was determined as 54%; in assay [2] it was 3.5%; in assay [3], 100%.
Taken in the same sequence, the figures for `O=C(c1cccc(NS(=O)(=O)Cc2ccccc2)c1F)c1c[nH]c2ncc(-c3cccnc3)cc12` were 20%, 1.7% and 85%.
For `Oc1ccc(-c2ncnc3[nH]c4ccc(O)cc4c23)cc1` the same measures were 92%, 84% and 100%.
Taken in the same sequence, the figures for `C#Cc1cnc2[nH]cc(C(=O)c3c(F)ccc(NS(=O)(=O)CCC)c3F)c2c1` were 89%, 1.4% and 100%.
As to `CS(=O)(=O)Nc1cccc(C(=O)c2c[nH]c3ncc(-c4ccc(Cl)cc4)cc23)c1F`, the Activity in assay [1] was found to be 78%; in assay [2], 27%; in assay [3] it was 81%.
For `CCCS(=O)(=O)Nc1ccc(F)c(C(=O)c2c[nH]c3ncc(-c4ccccc4)cc23)c1F`, the Activity in assay [1] was found to be 29%; in assay [2], 0.5%; in assay [3], 100%.
Take `CCCS(=O)(=O)Nc1ccc(F)c(C(=O)c2c[nH]c3ncc(-c4ccc(OC)cc4F)cc23)c1F`: the Activity is 6% in assay [2] and 85% in assay [3].
For the molecule `O=C(c1c(F)ccc(NS(=O)(=O)Cc2ccccc2F)c1F)c1c[nH]c2ncc(-c3ccc(Cl)cc3)cc12`, the Activity in assay [2] worked out at 23%; in assay [3] it was 97%.
For `Cc1ccc(CS(=O)(=O)Nc2ccc(F)c(C(=O)c3c[nH]c4ncc(-c5ccc(Cl)cc5)cc34)c2F)cc1`, the Activity in assay [2] was found to be 87%; in assay [3] it was 90%.
